Test: Stability (integrity) testing of amorphous and polymorphic form under storage conditions, RP-HPLC
Format: physicochemical
Parameters: key to Impurity RRT 0.738 / Impurity RRT 0.949 / Impurity RRT 1.050 / Impurity RRT 1.550 / Impurity RRT 0.136 / Impurity RRT 0.720 / Impurity RRT 0.706 / Impurity RRT 1.18 / Impurity RRT 1.826: % of total UV absorption (HPLC peak area); Impurity RRT 1.104 / Impurity RRT 1.698: unit not given beside the values
Conditions: Batch 3 PP00205
Description: The integrity of the different forms of the (3R, 5R)-7-[2-(4-fluorophenyl)-5-isopropyl-3-phenyl-4-[(4-hydroxymethylphenylamino)carbonyl]-pyrrol-1-yl]-3,5-dihydroxy-heptanoic acid, hemi calcium salt, was tested under different atmospheric conditions to determine the stability of the amorphous and polymorphic form of the drug in various storage environments. Reversed Phase-HPLC (RP-HPLC) was used to separate (3R, 5R)-7-[2-(4-fluorophenyl)-5-isopropyl-3-phenyl-4-[(4-hydroxymethylphenylamino)carbonyl]-pyrrol-1-yl]-3,5-dihydroxy-heptanoic acid, hemi calcium salt, from smaller molecules representing breakdown products as well as oxidized drug. The relative amount of the drug was reported as a percent of total absorption by UV. The total peak area of all UV absorption impurities was used to define total impurity of the drug. Impurities are defined by their relative retention time (RRT) compared to native drug. Samples were injected onto a C18 column using standard temperature, gradient and run-time conditions.
The results of this integrity testing for the amorphous form of (3R, 5R)-7-[2-(4-fluorophenyl)-5-isopropyl-3-phenyl-4-[(4-hydroxymethylphenylamino)carbonyl]-pyrrol-1-yl]-3,5-dihydroxy-heptanoic acid, hemi calcium salt, is shown in Table 5.
Three separate batches of polymorphic Form I of (3R, 5R)-7-[2-(4-fluorophenyl)-5-isopropyl-3-phenyl-4-[(4-hydroxymethylphenylamino)carbonyl]-pyrrol-1-yl]-3,5-dihydroxy-heptanoic acid, hemi calcium salt, were prepared and tested under the same atmospheric conditions described for the amorphous form.

## CC(C)c1c(C(=O)Nc2ccc(CO)cc2)c(-c2ccccc2)c(-c2ccc(F)cc2)n1CC[C@@H](O)C[C@@H](O)CC(=O)[O-].CC(C)c1c(C(=O)Nc2ccc(CO)cc2)c(-c2ccccc2)c(-c2ccc(F)cc2)n1CC[C@@H](O)C[C@@H](O)CC(=O)[O-].[Ca+2] [Form I, (3R,5)-7-[2-(4-fluorophenyl)-5-isopropyl-3-phenyl-4-[(4-hydroxymethylphenylamino)carbonyl]-pyrrol-1-yl]-3,5-dihydroxy-heptanoic acid, hemi calcium salt]
5° C. 2M
  Assay: 98.21 % W/W
  Description: White
  Highest Impurity: 0.402
  Impurity RRT 0.935: 0.402
  Impurity RRT 1.045: 0.340
  Impurity RRT 1.095: 0.155
  Impurity RRT 1.44: 0.203
  Impurity RRT 1.590: 0.096
  Impurity RRT 1.640: 0.064
  Impurity RRT 1.698: 0.067
  Total Impurity: 1.33
  Water: 4.02 % W/W
5° C. 3M
  Assay: 98.20 % W/W
  Description: White
  Highest Impurity: 0.436
  Impurity RRT 0.935: 0.416
  Impurity RRT 1.045: 0.436
  Impurity RRT 1.095: 0.155
  Impurity RRT 1.44: 0.203
  Impurity RRT 1.590: 0.093
  Impurity RRT 1.640: 0.061
  Impurity RRT 1.698: 0.065
  Total Impurity: 1.43
  Water: 4.69 % W/W
5° C. 4M
  Assay: 98.22 % W/W
  Description: White
  Highest Impurity: 0.381
  Impurity RRT 0.138: 0.219
  Impurity RRT 0.935: 0.381
  Impurity RRT 1.045: 0.324
  Impurity RRT 1.095: 0.128
  Impurity RRT 1.449: 0.220
  Impurity RRT 1.596: 0.077
  Impurity RRT 1.640: 0.081
  Impurity RRT 1.698: 0.057
  Total Impurity: 1.487
  Water: 5.08 % W/W
5° C. 5M
  Assay: 98.53 % W/W
  Description: White
  Highest Impurity: 0.410
  Impurity RRT 0.138: 0.231
  Impurity RRT 0.935: 0.410
  Impurity RRT 1.045: 0.321
  Impurity RRT 1.095: 0.140
  Impurity RRT 1.449: 0.198
  Impurity RRT 1.596: 0.075
  Impurity RRT 1.640: 0.049
  Impurity RRT 1.698: 0.058
  Total Impurity: 1.482
  Water: 4.79 % W/W
5° C. 6M
  Assay: 98.15 % W/W
  Description: White
  Highest Impurity: 0.368
  Impurity RRT 0.138: 0.256
  Impurity RRT 0.935: 0.368
  Impurity RRT 1.045: 0.315
  Impurity RRT 1.095: 0.165
  Impurity RRT 1.449: 0.211
  Impurity RRT 1.596: 0.081
  Impurity RRT 1.640: 0.049
  Impurity RRT 1.698: 0.050
  Total Impurity: 1.495
  Water: 4.78 % W/W
5° C. 9M
  Assay: 98.14 % W/W
  Description: White
  Highest Impurity: 0.390
  Impurity RRT 0.138: 0.222
  Impurity RRT 0.935: 0.390
  Impurity RRT 1.045: 0.372
  Impurity RRT 1.095: 0.142
  Impurity RRT 1.449: 0.174
  Impurity RRT 1.596: 0.088
  Impurity RRT 1.640: 0.049
  Impurity RRT 1.698: 0.053
  Total Impurity: 1.490
  Water: 5.39 % W/W
5° C. 12M
  Assay: 98.31 % W/W
  Description: White
  Highest Impurity: 0.438
  Impurity RRT 0.935: 0.438
  Impurity RRT 1.045: 0.383
  Impurity RRT 1.095: 0.177
  Impurity RRT 1.449: 0.217
  Impurity RRT 1.596: 0.090
  Impurity RRT 1.640: 0.066
  Impurity RRT 1.698: 0.066
  Total Impurity: 1.437
  Water: 5.97 % W/W
5° C./1M
  Assay: 98.26 % W/W
  Description: White
  Highest Impurity: 0.421
  Impurity RRT 0.706: 0.042
  Impurity RRT 0.935: 0.421
  Impurity RRT 1.045: 0.352
  Impurity RRT 1.095: 0.165
  Impurity RRT 1.44: 0.21
  Impurity RRT 1.590: 0.100
  Impurity RRT 1.640: 0.074
  Impurity RRT 1.698: 0.071
  Total Impurity: 1.455
  Water: 4.77 % W/W
25° C./60% RH 3M
  Assay: 98.11 % W/W
  Description: White
  Highest Impurity: 0.437
  Impurity RRT 0.935: 0.437
  Impurity RRT 1.045: 0.372
  Impurity RRT 1.095: 0.164
  Impurity RRT 1.44: 0.225
  Impurity RRT 1.590: 0.094
  Impurity RRT 1.640: 0.062
  Impurity RRT 1.698: 0.065
  Total Impurity: 1.42
  Water: 4.65 % W/W
25° C./60% RH 6M
  Assay: 98.10 % W/W
  Description: White
  Highest Impurity: 0.476
  Impurity RRT 0.935: 0.476
  Impurity RRT 1.045: 0.324
  Impurity RRT 1.095: 0.191
  Impurity RRT 1.449: 0.196
  Impurity RRT 1.596: 0.071
  Impurity RRT 1.640: 0.061
  Impurity RRT 1.698: 0.061
  Total Impurity: 1.380
  Water: 4.96 % W/W
25° C./60% RH 9M
  Assay: 97.95 % W/W
  Description: White
  Highest Impurity: 0.408
  Impurity RRT 0.935: 0.408
  Impurity RRT 1.045: 0.361
  Impurity RRT 1.095: 0.187
  Impurity RRT 1.449: 0.225
  Impurity RRT 1.596: 0.096
  Impurity RRT 1.640: 0.062
  Impurity RRT 1.698: 0.055
  Impurity RRT 1.826: 0.053
  Total Impurity: 1.477
  Water: 5.36 % W/W
25° C./60% RH 12M
  Assay: 98.10 % W/W
  Description: White
  Highest Impurity: 0.399
  Impurity RRT 0.138: 0.204
  Impurity RRT 0.935: 0.399
